Data on 14 molecules can be found in patent US7888363B2, “Viral polymerase inhibitors” (Boehringer Ingelheim International GmbH, priority 2003, dated 2011).

Chain of hepatitis C virus RNA dependant polymerase (NS5B) (P26663 2420-3010): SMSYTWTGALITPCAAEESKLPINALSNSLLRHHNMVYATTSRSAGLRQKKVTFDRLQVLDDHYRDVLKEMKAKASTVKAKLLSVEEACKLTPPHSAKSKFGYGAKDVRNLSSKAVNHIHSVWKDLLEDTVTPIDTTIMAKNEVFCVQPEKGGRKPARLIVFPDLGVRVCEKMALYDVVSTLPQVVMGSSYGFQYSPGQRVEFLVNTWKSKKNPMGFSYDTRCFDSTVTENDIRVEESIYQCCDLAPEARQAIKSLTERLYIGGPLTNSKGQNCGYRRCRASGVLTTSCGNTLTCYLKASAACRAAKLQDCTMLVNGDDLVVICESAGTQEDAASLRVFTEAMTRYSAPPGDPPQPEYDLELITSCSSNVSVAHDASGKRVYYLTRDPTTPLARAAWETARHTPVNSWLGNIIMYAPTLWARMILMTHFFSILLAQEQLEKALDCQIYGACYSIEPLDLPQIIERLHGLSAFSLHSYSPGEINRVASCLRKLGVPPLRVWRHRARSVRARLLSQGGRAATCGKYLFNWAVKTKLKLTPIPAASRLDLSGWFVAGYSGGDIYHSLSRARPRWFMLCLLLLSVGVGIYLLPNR

The target of this assay is hepatitis C virus RNA dependant polymerase (NS5B) (Hepatitis C virus genotype 1b, UniProt P26663). The assay can be described thus: Inhibition of NS5B RNA dependent RNA polymerase activity. It is filed as biochemical. As to conditions: Table 7; class ranges. Here is the method:
A suitable assay is described in the examples.
Inhibition of NS5B RNA Dependent RNA Polymerase Activity
The compounds of the invention were tested for inhibitory activity against the hepatitis C virus RNA dependant polymerase (NS5B), according to protocol described in WO 03/010141
`O=C(NC(CCO)c1ccccc1)c1ccc2c(c1)c(C1CCCCC1)c(-c1ccoc1)n2CC(=O)N1CCC(N2CCCC2)CC1` (centres unmarked) [Example 7049]: the IC50 (usually the concentration needed to halve the response being measured) was in the range of 1000 to 10000 nM.

Consider `O=C(O)CC(NC(=O)c1ccc2c(c1)c(C1CCCCC1)c(-c1ccoc1)n2CC(=O)N1CCC(N2CCCC2)CC1)C(F)(F)F` (centres unmarked) [Example 7051], for which the IC50 is 1000 to 10000 nM. To `Cc1cnc(CNC(=O)c2ccc3c(c2)c(C2CCCCC2)c(-c2ccoc2)n3CC(=O)N2CCC(N3CCCC3)CC2)cn1` [Example 7052] belongs 1000 to 10000 nM. To `CN1C(C)(C)CC(NC(=O)c2ccc3c(c2)c(C2CCCCC2)c(-c2ccoc2)n3CC(=O)N2CCC(N3CCCC3)CC2)CC1(C)C` [Example 7053] belongs 200 to 1000 nM; to `O=C(NC[C@H]1CC[C@H](C(=O)O)CC1)c1ccc2c(c1)c(C1CCCCC1)c(-c1ccoc1)n2CC(=O)N1CCC(N2CCCC2)CC1` [Example 7054], 1000 to 10000 nM; to `O=C(O)Cc1cccc(NC(=O)c2ccc3c(c2)c(C2CCCCC2)c(-c2ccoc2)n3CC(=O)N2CCC(N3CCCC3)CC2)c1` [Example 7055], 1000 to 10000 nM. To `O=C(O)CCc1cccc(NC(=O)c2ccc3c(c2)c(C2CCCCC2)c(-c2ccoc2)n3CC(=O)N2CCC(N3CCCC3)CC2)c1` [Example 7056] belongs 1000 to 10000 nM. In turn, `COC(=O)C(Cc1ccc(O)cc1)NC(=O)c1ccc2c(c1)c(C1CCCCC1)c(-c1ccoc1)n2CC(=O)N1CCC(N2CCCC2)CC1` (centres unmarked) [Example 7057] returned an IC50 of 1000 to 10000 nM. To `NC(=O)c1ccc2c(c1)c(C1CCCCC1)c(-c1ccoc1)n2CC(=O)N1CCC(N2CCCC2)CC1` [Example 7058] belongs 1000 to 10000 nM; to `O=C(NCCOCCO)c1ccc2c(c1)c(C1CCCCC1)c(-c1ccoc1)n2CC(=O)N1CCC(N2CCCC2)CC1` [Example 7059], 1000 to 10000 nM; to `COC(=O)C(Cc1ccc(Cl)cc1)NC(=O)c1ccc2c(c1)c(C1CCCCC1)c(-c1ccoc1)n2CC(=O)N1CCC(N2CCCC2)CC1` (centres unmarked) [Example 7060], 1000 to 10000 nM.

Regarding `CC(C)(C)NC(=O)[C@@H]1Cc2ccccc2CN1C(=O)c1ccc2c(c1)c(C1CCCCC1)c(-c1ccoc1)n2CC(=O)N1CCC(N2CCCC2)CC1` [Example 7061], the IC50 is 1000 to 10000 nM.

For `O=C(O)/C=C/c1ccc(NC(=O)C2(NC(=O)c3ccc4c(c3)c(C3CCCCC3)c(-c3ccoc3)n4CC(=O)N3CCC(N4CCCC4)CC3)CCC2)cc1` [Example 7062], the IC50 was 1000 to 10000 nM. As to `O=C(NS(=O)(=O)c1ccccc1)c1ccc2c(c1)c(C1CCCCC1)c(-c1ccoc1)n2CC(=O)N1CCC(N2CCCC2)CC1` [Example 7063], the IC50 is 1000 to 10000 nM.
